Values belong to the molecule of their own block, whether it stands above or below them.
Key:
HMG-CoA reductase [1] = target: T1, HMG-CoA reductase (Rattus norvegicus, UniProt P51639); test: intrinsic HMG-CoA reductase inhibition activity, in vitro protocol of J. Med. Chem., 1985, 28, page 347; type: biochemical; conditions: potassium salt
T1 construct: from tissue
T1 sequence (P51639 1-887): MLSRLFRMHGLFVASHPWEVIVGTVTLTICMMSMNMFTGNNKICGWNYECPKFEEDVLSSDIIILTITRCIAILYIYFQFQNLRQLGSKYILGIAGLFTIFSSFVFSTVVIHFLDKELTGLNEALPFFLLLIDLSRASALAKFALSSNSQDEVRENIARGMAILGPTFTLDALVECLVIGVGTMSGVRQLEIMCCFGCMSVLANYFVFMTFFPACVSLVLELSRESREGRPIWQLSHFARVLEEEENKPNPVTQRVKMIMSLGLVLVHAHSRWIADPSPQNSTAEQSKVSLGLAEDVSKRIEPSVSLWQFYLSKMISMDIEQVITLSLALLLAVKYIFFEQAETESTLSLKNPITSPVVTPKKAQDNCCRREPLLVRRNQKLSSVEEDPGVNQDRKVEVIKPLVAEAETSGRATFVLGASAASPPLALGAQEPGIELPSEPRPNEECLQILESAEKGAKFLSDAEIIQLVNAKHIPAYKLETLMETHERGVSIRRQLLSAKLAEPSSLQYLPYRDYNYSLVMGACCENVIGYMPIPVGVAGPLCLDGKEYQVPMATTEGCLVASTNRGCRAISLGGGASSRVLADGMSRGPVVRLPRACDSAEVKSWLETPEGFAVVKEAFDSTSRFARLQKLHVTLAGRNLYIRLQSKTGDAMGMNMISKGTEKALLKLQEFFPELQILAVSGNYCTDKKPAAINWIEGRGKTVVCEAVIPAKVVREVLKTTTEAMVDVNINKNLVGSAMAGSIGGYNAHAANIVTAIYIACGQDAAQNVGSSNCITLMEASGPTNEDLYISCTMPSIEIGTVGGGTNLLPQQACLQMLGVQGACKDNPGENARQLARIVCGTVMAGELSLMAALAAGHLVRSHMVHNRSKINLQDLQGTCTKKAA
Description: The intrinsic HMG-CoA reductase inhibition activity of the claimed compounds is measured in the in vitro protocol described in J. Med. Chem., 1985, 28, page 347.

[2] = reversion of free dihydroxy acid to parent lactone on standing; type: physicochemical; conditions: on standing at room temperature
Description: The sodium salt of the compound II from Example 8 is dissolved in 2 ml of ethanol-water (1:1; v:v) and added to 10 ml of 0.1N hydrochloric acid from which the dihydroxy acid is extracted with ethyl acetate. The organic extract is washed once with water, dried (Na2 SO4), and evaporated in vacuo with a bath temperature not exceeding 30° C.

HMG-CoA reductase [3] = target: T2, HMG-CoA reductase (Homo sapiens, UniProt P04035); conditions: relative to lovastatin; cited from earlier work
T2 sequence (P04035 1-888): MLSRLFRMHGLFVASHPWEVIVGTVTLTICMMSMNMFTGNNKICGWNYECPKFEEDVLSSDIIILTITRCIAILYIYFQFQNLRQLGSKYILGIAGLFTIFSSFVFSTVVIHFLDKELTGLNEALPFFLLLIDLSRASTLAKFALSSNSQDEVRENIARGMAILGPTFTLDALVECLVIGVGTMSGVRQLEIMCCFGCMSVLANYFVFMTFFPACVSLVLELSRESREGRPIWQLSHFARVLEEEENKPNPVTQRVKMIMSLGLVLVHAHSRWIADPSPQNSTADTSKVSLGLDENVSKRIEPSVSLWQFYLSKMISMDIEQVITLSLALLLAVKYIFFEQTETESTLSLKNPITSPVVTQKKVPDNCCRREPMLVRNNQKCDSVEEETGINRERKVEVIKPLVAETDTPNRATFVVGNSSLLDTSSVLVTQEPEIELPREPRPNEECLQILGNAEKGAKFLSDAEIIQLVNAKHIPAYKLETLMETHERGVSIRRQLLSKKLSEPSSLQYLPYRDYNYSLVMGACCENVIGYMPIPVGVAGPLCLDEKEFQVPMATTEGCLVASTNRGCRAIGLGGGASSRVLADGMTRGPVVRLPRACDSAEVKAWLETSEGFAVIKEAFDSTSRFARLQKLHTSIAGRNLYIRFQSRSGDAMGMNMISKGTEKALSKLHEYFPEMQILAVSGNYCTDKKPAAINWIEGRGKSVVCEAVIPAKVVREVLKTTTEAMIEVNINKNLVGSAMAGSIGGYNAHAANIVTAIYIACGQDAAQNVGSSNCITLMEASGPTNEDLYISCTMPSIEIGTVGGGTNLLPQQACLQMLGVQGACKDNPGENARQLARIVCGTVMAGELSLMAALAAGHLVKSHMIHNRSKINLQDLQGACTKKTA

IC50 (HMG-CoA reductase [1]): 897 nM
SMILES: CC1C=Cc2cc(CO)ccc2C1CC[C@@H](O)C[C@@H](O)CC(=O)O (stereo partly drawn)

SMILES: CC1C=Cc2cc(CO)ccc2C1CC[C@@H](O)C[C@@H](O)CC(=O)O (stereo partly drawn) [dihydroxy acid derivative]
reversion to the corresponding parent lactone [2]: slowly reverts to the corresponding parent lactone on standing at room temperature

SMILES: CCC(C)(C)C(=O)O[C@H]1C[C@@H](C)C=C2C=C[C@H](C)[C@H](CC[C@@H]3C[C@@H](O)CC(=O)O3)[C@H]21 [simvastatin]
HMG-CoA reductase inhibitor potency compared with lovastatin (HMG-CoA reductase [3]): even more potent HMG-CoA reductase inhibitor than lovastatin
